The text below walks through data of patent publication US20100144710A1, “Piperazine and Piperidine MGLUR5 Potentiators” (ASTRAZENECA AB, priority 2007, published 2010).

pEC50: −log10 of the molar value.

T1 sequence (P41594 21-942 isoform P41594-3 limits assumed): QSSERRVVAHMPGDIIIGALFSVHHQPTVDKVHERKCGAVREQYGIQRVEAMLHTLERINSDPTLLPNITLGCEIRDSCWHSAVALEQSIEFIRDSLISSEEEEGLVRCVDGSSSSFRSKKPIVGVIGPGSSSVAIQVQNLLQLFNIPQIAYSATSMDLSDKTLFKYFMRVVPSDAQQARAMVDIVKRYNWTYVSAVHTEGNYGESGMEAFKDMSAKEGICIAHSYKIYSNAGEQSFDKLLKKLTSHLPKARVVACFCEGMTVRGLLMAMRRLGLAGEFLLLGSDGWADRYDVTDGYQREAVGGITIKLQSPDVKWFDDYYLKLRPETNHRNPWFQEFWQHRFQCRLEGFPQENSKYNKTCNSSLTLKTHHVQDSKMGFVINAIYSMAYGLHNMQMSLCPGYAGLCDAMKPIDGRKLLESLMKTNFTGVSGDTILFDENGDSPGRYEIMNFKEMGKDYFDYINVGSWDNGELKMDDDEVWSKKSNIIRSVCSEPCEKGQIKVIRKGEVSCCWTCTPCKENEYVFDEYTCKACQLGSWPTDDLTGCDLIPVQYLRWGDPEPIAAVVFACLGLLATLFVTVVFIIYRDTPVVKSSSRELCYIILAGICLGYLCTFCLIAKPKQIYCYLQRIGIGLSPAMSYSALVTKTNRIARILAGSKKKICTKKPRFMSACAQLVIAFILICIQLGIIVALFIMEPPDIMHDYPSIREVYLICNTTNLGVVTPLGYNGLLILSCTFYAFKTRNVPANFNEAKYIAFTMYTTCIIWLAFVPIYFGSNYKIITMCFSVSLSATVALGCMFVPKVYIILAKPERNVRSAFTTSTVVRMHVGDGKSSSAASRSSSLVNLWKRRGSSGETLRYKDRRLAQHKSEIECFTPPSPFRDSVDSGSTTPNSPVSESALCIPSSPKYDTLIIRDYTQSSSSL

The test addresses T1, human mGluR5d (Homo sapiens, UniProt P41594).
T1 construct: expressed in transfected cells
The test can be described thus: intracellular calcium [Ca2+]i mobilization (FLIPR) functional assay in cells expressing mGluR5. It counts as cell-based. The conditions noted are these: potentiators of mGluR5; 'assays described herein', assay not specified (FLIPR or IP3 turnover). The source says: The pharmacological properties of the compounds of the invention can be analyzed using standard assays for functional activity. Examples of glutamate receptor assays are well known in the art as described in for example Aramori et al., Neuron 8:757 (1992), Tanabe et al., Neuron 8:169 (1992), Miller et al., J. Neuroscience 15: 6103 (1995), Balazs, et al., J. Neurochemistry 69:151 (1997). The methodology described in these publications is incorporated herein by reference. Conveniently, the compounds of the invention can be studied by means of an assay that measures the mobilization of intracellular calcium, [Ca^2+]i in cells expressing mGluR5.
Intracellular calcium mobilization was measured by detecting changes in fluorescence of cells loaded with the fluorescent indicator fluo-3. Fluorescent signals were measured using the FLIPR system (Molecular Devices). A two addition experiment was used that could detect compounds that either activate or antagonize the receptor.
For FLIPR analysis, cells expressing human mGluR5d were seeded on collagen coated clear bottom 96-well plates with black sides and analysis of [Ca^2+]i mobilization was done 24 hours after seeding.
FLIPR experiments were performed using a laser setting of 0.800 W and a 0.4 second CCD camera shutter speed. Each FLIPR experiment was initiated with 160 μL of buffer present in each well of the cell plate. After each addition of the compound, the fluorescence signal was sampled 50 times at 1 second intervals followed by 3 samples at 5 second intervals. Responses were measured as the peak height of the response within the sample period.
EC50 and IC50 determinations were made from data obtained from 8-point concentration response curves (CRC) performed in duplicate. Agonist CRC were generated by scaling all responses to the maximal response observed for the plate. Antagonist block of the agonist challenge was normalized to the average response of the agonist challenge in 14 control wells on the same plate.
In general terms: Calcium flux is commonly read through the fluorescence of an indicator in the cells.
The term pEC50 denotes the negative decadic logarithm of the EC50, by convention in mol/L. Turning to `CCCCOc1ccc(CC(=O)N2CCN(c3ncccc3C#N)CC2)cc1` [Compound 1, 2-{4-[2-(4-Butoxy-phenyl)-acetyl]-piperazin-l-yl}-nicotinonitrile], the pEC50 is 5.29.

Take `N#Cc1cccnc1N1CCN(C(=O)COc2ccccc2)CC1` [Compound 12, 2-[4-(2-Phenoxy-acetyl)-piperazin-1-yl]-nicotinonitrile]: the pEC50 was 5.46.

Take `CCCOc1ccc(CC(=O)N2CCN(c3ncccc3C#N)CC2)cc1` [Compound 16, 2-{4-[2-(4-Propoxy-phenyl)-acetyl]-piperazin-1-yl}-nicotinonitrile]: the pEC50 was 5.55.

Turning to `CCCCc1ccc(N(CC(=O)N2CCN(c3nccnc3C#N)CC2)S(C)(=O)=O)cc1` [Compound 44, N-(4-Butyl-phenyl)-N-{2-(3′-cyano-2,3,5,6-tetrahydro-[1,2]bipyrazinyl-4-yl)-2-oxo-ethyl]-methanesulfonamide], the pEC50 is 5.25.

As to `N#Cc1cccnc1N1CCN(C(=O)Cc2ccc(OCc3ccccn3)cc2)CC1` [Compound 45, 2-(4-{2-[4′-(Pyridin-2-ylmethoxy)-phenyl]-acetyl}-piperazin-1-yl)-nicotinonitrile], the pEC50 was 5.47.
